Laboratory results taken from US20030224021A1, “Methods of using epitope peptides of human pathogens” (Regents of the University of Minnesota, priority 1998, published 2003).
Where no end group is shown, it is not given here.

Tests used:
anti-DTD CD4+ cell lines = test: Proliferation assay (3H-thymidine) with anti-DTD CD4+ cell lines challenged with individual synthetic DTX peptides; type: cell-based, human; conditions: seven subjects of different HLA class II haplotype; peptide 10 μg/ml
Experimental: Propagation of CD4+ cell lines specific for DTD and proliferation assay. PBMC were suspended (1-2×10^6 cell/ml) in TCM containing 10 μg/ml DTD, and cultivated in T25 flasks (Costar, Cambridge, Mass.) for 1 week. The reactive lymphoblasts were isolated on Percoll gradients, expanded in TCM containing T-cell growth factor (TCGF, Lymphocult, Biotest Diagnostic, Dreieich, Germany, at a final concentration of IL-2 of 10 units/ml), and enriched in DTD-specific cells by weekly stimulations with the same amount of DTD plus irradiated (4,000 rads: 1 rad=0.01 Gy) autologous PBMC as APC. The response to DTD and PHA of the T cell lines obtained was tested weekly.
Proliferation assays with CD4+ cell lines for DTD. Proliferation assays were carried out with CD4+ lines, using 2×10^4 cells/well, irradiated autologous PBMC (2×10^5 cells/well) as APC, and the Ags described above for CD4+ enriched PBMC. Basal growth rate (Blank) was determined from triplicate wells containing CD4+ cell lines cultivated without any stimulus. After one day, the cultured cells were pulsed for 16 hours with ^3H-thymidine, collected, and the ^3H-thymidine incorporation measured as described above for CD4+ enriched PBMC.
Sequence segments of DTX recognized by anti-DTD T cell lines. The DTX epitopes recognized by the CD4+ cell lines were identified in proliferation assays using individual synthetic DTX-specific peptides. […] The consistency of the recognition was verified by repeating the test 1-2 weeks later.

PBMC = PBMC of 49 HLA heterogenous subjects challenged with DTX and TTX universal epitope peptides; type: cell-based, human; conditions: share of the 49 subjects whose PBMC responded
From the text: PBMC of 49 randomly selected, HLA heterogenous human subjects were challenged with each of the identified DTX and TTX universal epitope peptides. Generally, the PBMCs of each subject recognized several universal epitopes and all but one recognized at least one of the peptides.

| Substance | recognition by anti-DTD CD4+ cell lines (anti-DTD CD4+ cell lines) | positive response (1%) (PBMC) [%] |
| --- | --- | --- |
| Gln-Ser-Ile-Ala-Leu-Ser-Ser-Leu-Met-Val-Ala-Gln-Ala-Ile-Pro-leu-Val-Gly-Glu-Leu [331-350] | recognized by all seven individuals | 80 |
| VHHNTEEIVAQSIALSSLMV [321-340] | recognized by all seven individuals | 76 |
| QGESGHDIKITAENTPLPIA [411-430] | recognized by all seven individuals | 70 |
| VDIGFAAYNFVESIINLFQVV [351-370] | recognized by all seven individuals | 71 |
| GVLLPTIPGKLDVNKSKTHI [431-450] | recognized by all seven individuals | 70 |
| TDD: column head of Table 4 beside the TTD sequence segments; presumably tetanus toxoid |  | 96 |
| PVFAGANYAAWAVNVAQVI [271-290] | recognized by all seven individuals | 84 |
